From US8163269B2, “Bioactive stents for type II diabetics and methods for use thereof” (priority 2004, dated 2012)

Tested on: progenitor endothelial cells (PECs)
Assay: trial PEC isolation, plating on coated plates
Assay type: cell-based, human
Conditions: fibronectin-coated versus gelatin-coated plates
Description: PEC Isolations To establish the protocol for isolating the progenitor endothelial cells (PECs) from peripheral blood, blood from healthy, normal donors was used. A literature review generated multiple PEC isolation protocols (J.C.I. (2000) 105:71-77; Circ. (2003) 107:143-149; Circ. (2003) 107:1164-1169; Plast. Reconstruc. Surgr. (2004) 113:284; and Am. J. Physiol. Heart Circ. Physiol. (2004) 286:H1985-H1993). […] The flow chart in FIG. 2 presents a modified protocol followed in isolation of PECs.
Cells were isolated from ˜120 milliliters of peripheral blood and then single aliquots of cells were plated in Endothelial Basal Medium and 5% FBS (Cambrex). The media was changed every 4-5 days. The total cell number obtained from the isolations was donor-dependent and ranged from 40 million to 200 million cells.

fibronectin
attachment and growth of isolated cells on coated plates: attach and grow better on fibronectin-coated plates than on gelatin-coated plates
